According to ChEMBL document CHEMBL1158790, “Pseudopyronines A and B, alpha-pyrones produced by a marine Pseudomonas sp. F92S91, and evidence for the conversion of 4-hydroxy-alpha-pyrone to 3-furanone” (J Nat Prod, 2005):
Calls of active or inactive are those of the source. No cut-off for these calls is given here.

System: Saccharomyces cerevisiae
Assay: Antifungal activity against Saccharomyces cerevisiae
Format: functional, organism-based

In the case of `CCCCCCCC1=CC(=O)C(O)(CCCCCC)O1` (stereo unspecified), the Activity is reported as “inactive”.
